Data on 17 molecules can be found in patent US7674819B2 (Warner-Lambert Company LLC, priority 2005, dated 2010).

The target in one assay is T1, androgen receptor (Homo sapiens, UniProt P10275).
T1 sequence (P10275 1-920 Q868H): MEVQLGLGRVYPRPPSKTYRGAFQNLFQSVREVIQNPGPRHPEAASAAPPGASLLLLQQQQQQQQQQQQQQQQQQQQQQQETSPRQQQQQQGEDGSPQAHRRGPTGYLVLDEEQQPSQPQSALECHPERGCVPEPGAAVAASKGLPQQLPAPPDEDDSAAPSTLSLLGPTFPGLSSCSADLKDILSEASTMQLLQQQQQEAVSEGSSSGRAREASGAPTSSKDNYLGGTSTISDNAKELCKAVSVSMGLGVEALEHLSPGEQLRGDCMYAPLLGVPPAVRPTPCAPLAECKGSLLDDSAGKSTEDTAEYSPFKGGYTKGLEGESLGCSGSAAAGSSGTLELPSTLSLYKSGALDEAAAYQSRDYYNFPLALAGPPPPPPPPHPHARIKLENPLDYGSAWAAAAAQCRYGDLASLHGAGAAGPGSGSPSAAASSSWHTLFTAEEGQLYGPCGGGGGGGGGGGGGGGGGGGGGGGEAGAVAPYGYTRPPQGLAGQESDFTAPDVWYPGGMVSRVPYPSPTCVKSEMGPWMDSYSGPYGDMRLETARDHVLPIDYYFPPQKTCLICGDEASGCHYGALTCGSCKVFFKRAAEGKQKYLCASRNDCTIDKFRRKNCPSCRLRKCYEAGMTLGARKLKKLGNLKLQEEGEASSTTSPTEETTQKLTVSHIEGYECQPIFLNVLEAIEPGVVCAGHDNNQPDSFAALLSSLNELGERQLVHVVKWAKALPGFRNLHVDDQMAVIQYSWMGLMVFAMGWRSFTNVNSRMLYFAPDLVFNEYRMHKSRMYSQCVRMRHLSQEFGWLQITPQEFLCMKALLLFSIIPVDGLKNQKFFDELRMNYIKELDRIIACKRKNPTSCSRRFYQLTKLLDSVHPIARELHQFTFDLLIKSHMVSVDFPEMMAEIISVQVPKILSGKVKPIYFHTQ
The assay is described as follows: AR Antagonist Cell Assay (MDA-MB453-MMTV clone 54-19, luciferase reporter). The class given is cell-based. As to conditions: inhibition of induction by DHT (final concentration at 100 μM), 17 hr, compound 0.32-1000 nM, mean of multiple tests. How it is done:
The compounds ability to antagonize the effects of androgen on the androgen receptor were determined in a whole cell assay as described immediately below.
Experimental Procedure for AR Antagonist Cell Assay
This cell line is a stable transfected cell line with MDA-MB453 cell background (a human breast tumor cell line expressing androgen receptor). A MMTV minimal promoter containing ARE was first cloned in front of a firefly luciferase reporter gene. Then the cascade was cloned into transfection vector pUV120puro. […] Puromycin resistant stable cell line was selected.
Cell Culture Media and Reagents:
Plating medium: DMEM (phenol red free), 10% charcoal treated HyClone serum, 1% L-glutamine
Assay medium: DMEM (phenol red free), 1% charcoal treated HyClone serum, 1% L-glutamine, 1% penicillin/streptomycin
Cells are maintained in culture medium, splitting cells when they reach 80-90% confluence
To test compounds, 10,000 cells/well are plated to opaque 96 cell culture plate in 100 ul/well plating medium, culture for overnight at 37° C. in cell culture incubator
Add 10 ul/well freshly prepared DHT (final concentration at […]) to each well, incubate at 37° C. for 17 hr (overnight)
Add 50 ul/well 3× luciferase buffer, incubate at room temperature for 5 minutes, then count on Luminometer
The results are reported as the mean of multiple tests described below (the numbers of tests are indicated in the footnote). N.D. denotes that the compound was not tested.
(In a reporter assay the amount or activity of a reporter protein is the signal.)

A further assay addresses T2, hAR (Homo sapiens, UniProt P10275).
T2 sequence (P10275 1-920): T1 sequence (P10275 1-920 Q868H) with H868Q
Nature of the assay: Competitive binding of 3H-DHT to baculovirus/Sf9 generated hAR extracts. As to conditions: one hour at 4° C., mean of multiple tests. The method in brief:
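Baculovirus/Sf9-expressed hAR extract incubated with test compound, hydroxylapatite and 1 nM 3H-DHT tracer for 1 h at 4° C, then washed free of unbound tracer. Affinity given as concentration inhibiting half of maximal 3H-DHT binding.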

Setting [1] is: IC50, concentration at which one half of maximum binding of 1 nM 3H-DHT to hAR is inhibited.
The mark [2] stands for this setting: concentration at which one half of maximum binding of 1 nM 3H-DHT to hAR is inhibited, read-out: IC50.

Positions count from the first letter of the chain named. Like-named read-outs stand apart in the source and are kept apart here.

One may read the IC50 as the concentration that gives 50% inhibition. As for `CC1(C)CN(S(C)(=O)=O)C(=O)C1Oc1ccc(C#N)c(C(F)(F)F)c1` (single isomer, unassigned; (+)) [Example 96, (+)-4-(1-Methanesulfonyl-4,4-dimethyl-2-oxo-pyrrolidin-3-yloxy)-2-trifluoromethyl-benzonitrile], the IC50 against androgen receptor was determined as 36 nM; on hAR (concentration at which one half of maximum binding of 1 nM 3H-DHT to hAR is inhibited), 12 nM.
Turning to `COc1cccc(C(C)N2CC(C)(C)C(Oc3ccc(C#N)c(C(F)(F)F)c3)C2=O)c1` (single isomer, unassigned; (+)) [Example 23, (+)-4-{1-[1-(3-Methoxy-phenyl)-ethyl]-4,4-dimethyl-2-oxo-pyrrolidin-3-yloxy}-2-trifluoromethyl-benzonitrile], the IC50 was determined as 58 nM on androgen receptor and 64 nM at hAR (setting [1]).
In the case of `CC1(C)CN(C(=O)Cc2ccccc2)C(=O)C1Oc1ccc(C#N)c(C(F)(F)F)c1` (stereo not shown) [Example 101, 4-(4,4-Dimethyl-2-oxo-1-phenylacetyl-pyrrolidin-3-yloxy)-2-trifluoromethyl-benzonitrile], the values for the IC50 on androgen receptor (read-out: IC50) and at hAR (setting [2]) were 83 nM and 174 nM, respectively.
For `CC1(C)CN(Cc2nnc(-c3ccccc3O)o2)C(=O)C1Oc1ccc(C#N)c(C(F)(F)F)c1` (stereo not shown) [Example 112, 4-{1-[5-(2-Hydroxy-phenyl)-[1,3,4]oxadiazol-2-ylmethyl]-4,4-dimethyl-2-oxo-pyrrolidin-3-yloxy}-2-trifluoromethyl-benzonitrile], the IC50 on androgen receptor (read-out: IC50) came to 198 nM; at hAR (setting [1]), 85 nM.
On to `CC1(C)CN(Cc2ccc(O)cc2)C(=O)C1Oc1ccc(C#N)c(C(F)(F)F)c1` (stereo not shown) [Example 8, 4-[1-(4-Hydroxy-benzyl)-4,4-dimethyl-2-oxo-pyrrolidin-3-yloxy]-2-trifluoromethyl-benzonitrile], for which the results for the IC50 at androgen receptor and at hAR (setting [1]) were 33 nM and 17 nM, respectively.
On to `COC(=O)c1csc(CN2CC(C)(C)C(Oc3ccc(C#N)c(C(F)(F)F)c3)C2=O)n1` (stereo not shown) [Example 30, 2-[3-(4-Cyano-3-trifluoromethyl-phenoxy)-4,4-dimethyl-2-oxo-pyrrolidin-1-ylmethyl]-thiazole-4-carboxylic acid methyl ester], for which the results for the IC50 against androgen receptor and on hAR (setting [1]) were 813 nM and 215 nM, respectively.
As to `CC1(C)CN(Cc2ccc3nsnc3c2)C(=O)C1Oc1ccc(C#N)c(C(F)(F)F)c1` (stereo not shown) [Example 39, 4-(1-Benzo[1,2,5]thiadiazol-5-ylmethyl-4,4-dimethyl-2-oxo-pyrrolidin-3-yloxy)-2-trifluoromethyl-benzonitrile], the half-maximal inhibitory concentration (IC50) at androgen receptor is 74 nM; on hAR (setting [1]) it was 64 nM.
Taken in the same sequence, the figures for `CC1(C)CN(Cc2ccc(F)cc2)C(=O)C1Oc1ccc(C#N)c(C(F)(F)F)c1` (stereo not shown) [Example 17, 4-[1-(4-Fluoro-benzyl)-4,4-dimethyl-2-oxo-pyrrolidin-3-yloxy]-2-trifluoromethyl-benzonitrile] were 214 nM and 144 nM.
In the case of `CC1(C)CN(Cc2nnc(-c3cccc(O)c3)o2)C(=O)C1Oc1ccc(C#N)c(C(F)(F)F)c1` (stereo not shown) [Example 113, 4-{1-[5-(3-Hydroxy-phenyl)-[1,3,4]oxadiazol-2-ylmethyl]-4,4-dimethyl-2-oxo-pyrrolidin-3-yloxy)-2-trifluoromethyl-benzonitrile], the IC50 came to 651 nM on androgen receptor (read-out: IC50) and 224 nM on hAR (setting [2]).
Take `CC1(C)CN(Cc2nc3ccccc3s2)C(=O)C1Oc1ccc(C#N)c(C(F)(F)F)c1` (stereo not shown) [Example 40, 4-(1-Benzothiazol-2-ylmethyl-4,4-dimethyl-2-oxo-pyrrolidin-3-yloxy)-2-trifluoromethyl-benzonitrile]: the IC50 against androgen receptor worked out at 50 nM; on hAR (setting [1]), 43 nM.
Consider `CC1(C)CN(S(=O)(=O)c2cccc(C#N)c2)C(=O)C1Oc1ccc(C#N)c(C(F)(F)F)c1` (stereo not shown) [Example 88, 4-[1-(3-Cyano-benzenesulfonyl)-4,4-dimethyl-2-oxo-pyrrolidin-3-yloxy]-2-trifluoromethyl-benzonitrile], for which the IC50 on androgen receptor (read-out: IC50) came to 134 nM; at hAR (setting [2]), 110 nM.
Take `CC1(C)CN(Cc2ccccc2)C(=O)C1Oc1ccc(C#N)c(C(F)(F)F)c1` (single isomer, unassigned; (+)) [Example 6, (+)-4-(1-Benzyl-4,4-dimethyl-2-oxo-pyrrolidin-3-yloxy)-2-trifluoromethyl-benzonitrile]: the IC50 came out at 136 nM against androgen receptor and 31 nM on hAR (setting [1]).
As to `CC1(C)CN(Cc2cccc(O)c2)C(=O)C1Oc1ccc(C#N)c(C(F)(F)F)c1` (stereo not shown) [Example 13, 4-[1-(3-Hydroxy-benzyl)-4,4-dimethyl-2-oxo-pyrrolidin-3-yloxy]-2-trifluoromethyl-benzonitrile], the IC50 against androgen receptor worked out at 313 nM; at hAR (setting [1]) it was 11 nM.
On to `CC1(C)CN(Cc2ccccc2F)C(=O)C1Oc1ccc(C#N)c(C(F)(F)F)c1` (stereo not shown) [Example 16, 4-[1-(2-Fluoro-benzyl)-4,4-dimethyl-2-oxo-pyrrolidin-3-yloxy]-2-trifluoromethyl-benzonitrile], for which the IC50 came out at 43 nM on androgen receptor and 26 nM at hAR (setting [1]).
For the molecule `CSCN1CC(C)(C)C(Oc2ccc(C#N)c(C(F)(F)F)c2)C1=O` (stereo not shown) [Example 99, 4-(4,4-Dimethyl-1-methylsulfanylmethyl-2-oxo-pyrrolidin-3-yloxy)-2-trifluoromethyl-benzonitrile], the values for the IC50 against androgen receptor and on hAR (setting [2]) were 36 nM and 113 nM, respectively.
On to `CC1(C)CN(S(=O)(=O)c2cccc(O)c2)C(=O)C1Oc1ccc(C#N)c(C(F)(F)F)c1` (stereo not shown) [Example 95, 4-[1-(3-Hydroxy-benzenesulfonyl)-4,4-dimethyl-2-oxo-pyrrolidin-3-yloxy]-2-trifluoromethyl-benzonitrile], for which the IC50 at androgen receptor (read-out: IC50) is more than 1000 nM; at hAR (setting [1]), 8 nM.
For `CC1(C)CN(Cc2nc(-c3ccccc3)no2)C(=O)C1Oc1ccc(C#N)c(C(F)(F)F)c1` (stereo not shown) [Example 52, 4-[4,4-Dimethyl-2-oxo-1-(3-phenyl-[1,2,4]oxadiazol-5-ylmethyl)-pyrrolidin-3-yloxy]-2-trifluoromethyl-benzonitrile], the figures for the half-inhibitory concentration (IC50) against androgen receptor and on hAR (setting [1]) were 54 nM and 160 nM, respectively.
